In this test the test system is P388 leukemia ip, CD2F1 mice, survival T/C. Nature of the test: NCI In Vivo Anticancer Drug Screen. Data for tumor model P388 Leukemia (intraperitoneal) in CD2F1 (CDF1) mice. The note with it: endpoint: median survival time, higher = longer survival. The gist of the method: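 Mice carrying the transplanted tumor received test compound or vehicle. Survival was recorded in each group, and the value is the treated-group measurement divided by that of the vehicle-treated control group.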

Where [1] appears, read: dose: 100.0 mg/kg/injection, schedule: Q04DX003 (ip), vehicle: saline with Tween-80.
Setting [2] is: dose: 60.0 mg/kg/injection, schedule: Q01DX005 (ip), vehicle: saline with Tween-80.
The mark [3] stands for this setting: dose: 120.0 mg/kg/injection, schedule: Q01DX005 (ip), vehicle: saline with Tween-80.
[4] abbreviates: dose: 240.0 mg/kg/injection, schedule: Q01DX005 (ip), vehicle: saline with Tween-80.
Where [5] appears, read: dose: 50.0 mg/kg/injection, schedule: Q01DX005 (ip), vehicle: Klucel (hydroxypropylcellulose) (HPC).
[6] abbreviates: dose: 100.0 mg/kg/injection, schedule: Q01DX005 (ip), vehicle: Klucel (hydroxypropylcellulose) (HPC).
Setting [7] is: dose: 200.0 mg/kg/injection, schedule: Q01DX005 (ip), vehicle: Klucel (hydroxypropylcellulose) (HPC).
Setting [8] is: dose: 50.0 mg/kg/injection, schedule: Q01DX005 (ip), vehicle: saline with Tween-80.
The mark [9] stands for this setting: dose: 100.0 mg/kg/injection, schedule: Q01DX005 (ip), vehicle: saline with Tween-80.
[10] abbreviates: dose: 200.0 mg/kg/injection, schedule: Q01DX005 (ip), vehicle: saline with Tween-80.
[11] abbreviates: dose: 25.0 mg/kg/injection, schedule: Q01DX009 (ip), vehicle: saline with Tween-80.
The mark [12] stands for this setting: dose: 50.0 mg/kg/injection, schedule: Q01DX009 (ip), vehicle: saline with Tween-80.
[13] abbreviates: dose: 100.0 mg/kg/injection, schedule: Q01DX009 (ip), vehicle: saline with Tween-80.
[14] abbreviates: dose: 200.0 mg/kg/injection, schedule: Q01DX009 (ip), vehicle: saline with Tween-80.
The mark [15] stands for this setting: dose: 100.0 mg/kg/injection, schedule: Q01DX009 (ip), vehicle: suspension in saline.
Where [16] appears, read: dose: 200.0 mg/kg/injection, schedule: Q01DX009 (ip), vehicle: suspension in saline.
Setting [17] is: dose: 60.0 mg/kg/injection, schedule: Q01DX005 (ip), vehicle: saline.
Where [18] appears, read: dose: 120.0 mg/kg/injection, schedule: Q01DX005 (ip), vehicle: saline.
[19] abbreviates: dose: 240.0 mg/kg/injection, schedule: Q01DX005 (ip), vehicle: saline.

Values joined by “and” are separate entries in the source; they are usually repeats but may differ in a detail not shown here. Equal values may be shown once. Toxic doses and inconclusive results are not listed.

`COC(c1ccccc1)C1(O)CCN(C)CC1` (configuration not stated): the T/C by setting is: (dose: 72.0 mg/kg/injection, schedule: Q04DX002 (ip), vehicle: Klucel (hydroxypropylcellulose) (HPC)) 98 % of control; (dose: 144.0 mg/kg/injection, schedule: Q04DX002 (ip), vehicle: Klucel (hydroxypropylcellulose) (HPC)) 97 % of control; (dose: 288.0 mg/kg/injection, schedule: Q04DX002 (ip), vehicle: Klucel (hydroxypropylcellulose) (HPC)) 98 % of control.

As to `Cc1ccc(S(=O)(=O)NC(CSCc2ccccc2)C(=O)O)cc1` (configuration not stated), the T/C was 100 % of control under setting [1]; 100 % of control (dose: 200.0 mg/kg/injection, schedule: Q04DX003 (ip), vehicle: saline with Tween-80); 100 % of control (dose: 400.0 mg/kg/injection, schedule: Q04DX003 (ip), vehicle: saline with Tween-80).

On to `CCOc1c(Cc2ccccc2)c(=O)nc2c(-c3ccccc3)cncn12`, for which the T/C (dose: 30.0 mg/kg/injection, schedule: Q01DX005 (ip), vehicle: saline with Tween-80) is 101 % of control; the T/C under setting [2] was 86 % of control and 90 % of control; the T/C under setting [3] is 92 % of control; the T/C under setting [4] was 87 % of control.

Regarding `O=[N+]([O-])c1ccc(/C=C/C(CCN2CCCCC2)=N\O)o1`, the T/C is 104 % of control under setting [2], 104 % of control under setting [3] and 100 % of control under setting [4].

As to `CCCCCC[Se][Se]CCCCCC`, the T/C is, setting by setting: (dose: 3.12 mg/kg/injection, schedule: Q01DX005 (ip), vehicle: Klucel (hydroxypropylcellulose) (HPC)) 98 % of control; (dose: 6.25 mg/kg/injection, schedule: Q01DX005 (ip), vehicle: Klucel (hydroxypropylcellulose) (HPC)) 97 % of control; (dose: 12.5 mg/kg/injection, schedule: Q01DX005 (ip), vehicle: Klucel (hydroxypropylcellulose) (HPC)) 106 % of control; (dose: 25.0 mg/kg/injection, schedule: Q01DX005 (ip), vehicle: Klucel (hydroxypropylcellulose) (HPC)) 104 % of control.

As for `COc1cc(OC)c(/C=N/Nc2cc(C)c3ccc(OC)cc3n2)c(OC)c1`, the T/C is, setting by setting: under setting [5], 105 % of control; under setting [6], 113 % of control; under setting [7], 114 % of control.

Consider `Cc1nc2ccccc2c(=O)n1/N=C/c1cccc([N+](=O)[O-])c1`, for which the T/C is 104 % of control under setting [8], 99 % of control under setting [9] and 98 % of control under setting [10].

Turning to `COc1cc(O)c2c(O)c3c(=O)cc(C)oc3cc2c1`, the T/C was 102 % of control under setting [11], 109 % of control under setting [12] and 112 % of control under setting [13].

Consider `COc1cccc(/C=N\c2nc(-c3ccccc3Cl)cs2)c1O`, for which the T/C under setting [5] was 89 % of control, the T/C under setting [6] is 94 % of control and the T/C under setting [7] was 105 % of control.

`Nc1cccc(-n2ccnc2)c1`: the T/C is 100 % of control (dose: 100.0 mg/kg/injection, schedule: Q04DX002 (ip), vehicle: saline with Tween-80); 93 % of control (dose: 200.0 mg/kg/injection, schedule: Q04DX002 (ip), vehicle: saline with Tween-80); 90 % of control (dose: 400.0 mg/kg/injection, schedule: Q04DX002 (ip), vehicle: saline with Tween-80).

In the case of `O=C(CNC(=O)NCc1ccco1)NNC(=O)Nc1ccc(Cl)c([N+](=O)[O-])c1`, the T/C under setting [2] is 95 % of control, the T/C under setting [3] was 94 % of control and the T/C under setting [4] was 97 % of control.

As for `Clc1ccc(-c2noc(CN3CCOCC3)n2)cc1`, the T/C is 102 % of control (dose: 50.0 mg/kg/injection, schedule: Q01DX009 (ip), vehicle: saline); 105 % of control (dose: 100.0 mg/kg/injection, schedule: Q01DX009 (ip), vehicle: saline); 109 % of control (dose: 200.0 mg/kg/injection, schedule: Q01DX009 (ip), vehicle: saline).

Regarding `COc1cc2c(cc1Cc1cc(OC)c(OC)c(OC)c1)OCO2`, the T/C by setting is: (dose: 60.0 mg/kg/injection, schedule: Q01DX005 (ip), vehicle: Klucel (hydroxypropylcellulose) (HPC)) 98 % of control; (dose: 120.0 mg/kg/injection, schedule: Q01DX005 (ip), vehicle: Klucel (hydroxypropylcellulose) (HPC)) 100 % of control; (dose: 240.0 mg/kg/injection, schedule: Q01DX005 (ip), vehicle: Klucel (hydroxypropylcellulose) (HPC)) 98 % of control.

Take `CN1CC(CO)=CC2c3cccc4[nH]cc(c34)CC21` (configuration not stated): the T/C runs as follows: under setting [11], 111 % of control; under setting [12], 104 % of control; under setting [13], 104 % of control.

As for `CC(N)C(=O)OCN1C(=O)C2C3C=CC(C2C1=O)C1C2C(=O)N(COC(=O)C(C)N)C(=O)C2C31` (configuration not stated), the T/C (dose: 25.0 mg/kg/injection, schedule: Q01DX009 (ip), vehicle: water) is 109 % of control and 112 % of control; the T/C (dose: 50.0 mg/kg/injection, schedule: Q01DX009 (ip), vehicle: water) is 108 % of control; the T/C (dose: 100.0 mg/kg/injection, schedule: Q01DX009 (ip), vehicle: water) is 178 % of control and 193 % of control.

As for `C1CSC(CCC2SCCCS2)SC1`, the T/C under setting [12] is 92 % of control, the T/C under setting [13] is 90 % of control and the T/C under setting [14] is 87 % of control.

Take `CCCN(CCC)c1ccc(C(=O)Oc2c(C)cccc2OC)cc1`: the T/C by setting is: under setting [5], 93 % of control; under setting [6], 102 % of control; under setting [7], 90 % of control.

Consider `CC(SC(C)C(=O)N/N=C/c1ccc(C#N)cc1)C(=O)N/N=C\c1ccc(C#N)cc1` (configuration not stated), for which the T/C runs as follows: under setting [15], 97 % of control; under setting [16], 101 % of control; (dose: 400.0 mg/kg/injection, schedule: Q01DX009 (ip), vehicle: suspension in saline) 90 % of control.

In the case of `Nc1cc(N)n(C2=NCCN2)n1`, the T/C reads like this: under setting [17], 104 % of control; under setting [18], 104 % of control; under setting [19], 98 % of control.

Take `Fc1c(F)c(C(F)(F)F)c(F)c(F)c1-n1nnc(-c2ccccc2)n1`: the T/C by setting is: under setting [5], 99 % of control; under setting [6], 96 % of control; under setting [7], 100 % of control.

Regarding `NC(=O)C(NC(=O)c1ccc([N+](=O)[O-])cc1)C(N)=O`, the T/C by setting is: (dose: 100.0 mg/kg/injection, schedule: Q04DX003 (ip), vehicle: saline) 103 % of control; (dose: 200.0 mg/kg/injection, schedule: Q04DX003 (ip), vehicle: saline) 103 % of control; (dose: 400.0 mg/kg/injection, schedule: Q04DX003 (ip), vehicle: saline) 103 % of control.

For the compound `Nc1c(S(=O)(=O)O)cc(Nc2cccc(S(=O)(=O)/C=C/S(=O)(=O)O)c2)c2c1C(=O)c1ccccc1C2=O`, the T/C is, setting by setting: under setting [17], 99 % of control; under setting [18], 104 % of control; under setting [19], 111 % of control.

As to `Cc1cnc2ccccc2c1/C=C/c1ccc(N(C)C)cc1`, the T/C is 124 % of control under setting [12]; 153 % of control under setting [14]; 120 % of control (dose: 400.0 mg/kg/injection, schedule: Q01DX009 (ip), vehicle: saline with Tween-80).

For `CC(=O)Cc1cc(-c2cc(CC(C)=O)nc(N)n2)nc(N)n1`, the T/C runs as follows: under setting [17], 96 % of control; under setting [18], 96 % of control; under setting [19], 97 % of control.

In the case of `Cc1nc2c([N+](=O)[O-])c(N3CCN(C)CC3)c([N+](=O)[O-])cc2[nH]1`, the T/C by setting is: (dose: 12.5 mg/kg/injection, schedule: Q04DX003 (ip), vehicle: saline with Tween-80) 95 % of control; (dose: 25.0 mg/kg/injection, schedule: Q04DX003 (ip), vehicle: saline with Tween-80) 106 % of control; (dose: 50.0 mg/kg/injection, schedule: Q04DX003 (ip), vehicle: saline with Tween-80) 100 % of control and 90 % of control; under setting [1], 104 % of control.

Regarding `CCCOc1cc2c(cc1C/C=C/c1ccccc1)OCO2`, the T/C by setting is: under setting [8], 94 % of control; under setting [9], 100 % of control; under setting [10], 102 % of control.

Regarding `Cc1cc(C(O)(C(F)(F)F)C(F)(F)F)c2c(c1)C(C(F)(F)F)(C(F)(F)F)OC(C)(C)N2`, the T/C reads like this: under setting [5], 100 % of control; under setting [6], 100 % of control; under setting [7], 101 % of control.

`FC(F)(F)c1cc(NC(=S)SCc2ccc(Cl)cc2)ccc1Cl`: the T/C was 103 % of control (dose: 50.0 mg/kg/injection, schedule: Q01DX009 (ip), vehicle: suspension in saline); 90 % of control under setting [15]; 93 % of control under setting [16].

Source of the values: PubChem BioAssay AID330 (DTP/NCI, 2004).
